# Values joined by “and” are separate entries in the source; they are usually repeats but may differ in a detail not shown here. Equal entries are not always repeated.
# Tested on: myofilaments of skinned left ventricular papillary fiber bundles
# Assay: Ca2+-sensitivity of tension in skinned fiber bundles (first series, pCa-tension)
# Format: biochemical, mouse
# Settings: for myofilament Ca2+ sensitivity: DOCA-salt fibers/myocytes treated with ranolazine
# Method: Ca^2+-sensitivity of tension in skinned fibers: Myofilament response to Ca^2+ was measured as essentially described in Reference 24. Left ventricular papillary muscles were dissected from mouse hearts and placed in 4° C. high relaxing solution (HR), which contained 10.00 mM EGTA, 41.89 mM K-Prop, 6.57 mM MgCl2, 100.00 mM 2-[bis(2-hydroxyethyl)amino]ethanesulfonic acid (BES), 6.22 mM Na-ATP, 10.00 mM CrP, 5.00 mM Na-azide, 2.5 μg/mL Pepstatin, 1 μg/mL Leupeptin, and 50 μM PMSF, pH 7.0. The muscles were then dissected further under the microscope into uniform thin bundles of about 3-5 mm in length and 150-250 μm in diameter. The fiber bundles were placed then into a skinning solution of HR that contained 1% triton for 1-2 h at 4° C. The skinned fiber bundles were mounted with cellulose acetate glue in a force measuring apparatus and sarcomere length was adjusted to 2.2 μm using a laser diffraction pattern and width and thickness were determined for calculation of cross-sectional area. The fiber bundles were incubated in ranolazine or vehicle for 15 minutes, and then were activated at 22° C. over a series of pCa (−log of the M Ca^2+ concentration) values between pCa 8.00 and pCa 4.5. Activating solutions were prepared by mixing HR with a pCa 4.50 solution of 10.00 mM EGTA, 9.99 mM CaCl2, 22.16 mM K-Prop (K-Prop stock had 1.00 M propionic acid and 1.00 M KOH), 6.20 mM MgCl2, 100.00 mM BES, 6.29 mM Na-ATP, 10.00 mM creatine phosphate (CrP), 5.00 mM Na-azide, 2.5 μg/mL pepstatin, 1 μg/mL leupeptin, and 50 μM PMSF, pH 7.0. HR and pCa 8.00-pCa 4.50 solutions had one unit of creatine phosphokinase per 200 μL of solution. Tension generated was computed from the force/cross-sectional area and data were analyzed in the Graphpad Prism software and fit into a sigmoidal modified Hill equation in order to generate tension-pCa curves, Hill coefficients, and pCa50 (pCa value at half-maximum tension).
# We measured myofilament response to Ca^2+ under two experimental conditions as described in detail below. In a first series of experiments the skinned fiber bundles were mounted in a force measuring apparatus and sarcomere length (SL) was adjusted to 2.2 μm using a laser diffraction pattern and width and thickness were determined for calculation of cross-sectional area. Force was measured over a range of pCa values Skinned fiber bundles were treated with 10 μmol/L ranolazine for 15 min prior to evaluation. In a second series of experiments under different experimental conditions, we determined steady-state Mg-ATPase activity, while simultaneously measuring isometric tension in skinned fiber bundles as a function of pCa. In all experiments, skinned fibers were treated with ranolazine or DMSO vehicle for 15 min prior to beginning either tension or tension/ATPase rate measurements. Tension generated was computed from the force/cross-sectional area and data were analyzed in the GraphPad Prism software and fit with a sigmoidal modified Hill equation in order to generate tension-pCa curves, Hill coefficients, and pCa50 (pCa value at half-maximum tension). We also determined cross-bridge kinetics employing a quick release/restretch protocol. The rate constant for force redevelopment, Ktr, provides a measure of the rate of cross-bridge entry into the force generating state. In all experiments, only fiber bundles retaining more than 80% of their initial maximum tension were included in the analysis. […]
structure (smiles),measurement,setting,value
COc1ccccc1OCC(O)CN1CCN(CC(=O)Nc2c(C)cccc2C)CC1 (centres unmarked) [ranolazine],Maximum Tension,DOCA-salt fibers treated with ranolazine (FIG. 11),36.03±1.50 mN/mm^2
same,myofilament Ca2+ sensitivity,,returned the DOCA-salt myofilament sensitivity to levels similar to sham fibers
same,myofilament Ca2+ sensitivity,listed as Ranolazine,returned DOCA-salt myofilament sensitivity to levels similar to sham myocytes
same,Hill n,"fibers from DOCA mice treated with 10 μmol/L ranolazine 15 min, listed as ranalozine",3.71+/−1.0 and 3.71±1.0
same,pCa50 (pCa-tension relations normalized to maximum tension),"fibers from DOCA mice treated with 10 μmol/L ranolazine 15 min, sarcomere length 2.2 μm, 22° C., listed as ranalozine",6.0+/−0.03 and 6.0±0.03

# — patent US20120214818A1, “METHODS OF TREATING DIASTOLIC DYSFUNCTION AND RELATED CONDITIONS” (THE BOARD OF TRUSTEES OF THE UNIVERSITY OF ILLINOIS, priority 2009, published 2012)
